Reference: PMC7956626, “Phenylalanine-Derived β-Lactam TRPM8 Modulators. Configuration Effect on the Antagonist Activity” (International Journal of Molecular Sciences, 2021)
“Also recorded” adds a separate entry of the source.

What was measured:
[1] = test system: oxaliplatin-induced allodynia; parameters: method as in PMID 32843690; conditions: mice; from 15 to up to 60 min; ref [41]; cited from earlier work
four tumor cell lines = test system: four tumor cell lines; parameters: method as in PMID 32843690; conditions: non-selective, ref [41]; cited from earlier work
rat TRPM8 [2] = target: T1, rat TRPM8 (Rattus norvegicus, UniProt Q8R455); parameters: method as in PMID 32843690; conditions: ref [41]; cited from earlier work
T1 construct: expressed in transfected cells; host or cells: HEK293 (human embryonic kidney), stably transfected

hTRPV1 = target: T2, hTRPV1 (Homo sapiens, UniProt Q8NER1); assay: Ca2+ influx assay, TRPV1 selectivity; type: cell-based; conditions: compound 50 μM; read-out: % TRPV1 Blockade at 50 μM
T2 construct: expressed in transfected cells
From the text: (§1) Because some molecular cross-recognition may occur within thermoTRP members, we evaluated the effect of compounds 14 and 16 on recombinantly expressed hTRPV1 and hTRPA1 channels. Data shown in Table 2 indicate that these β–lactam derivatives marginally cross-reacted with these channels, thus substantiating that they are potent and selective inhibitors of TRPM8.

hTRPA1 = target: T3, hTRPA1 (Homo sapiens, UniProt O75762); assay: Ca2+ influx assay, TRPA1 selectivity; type: cell-based; conditions: compound 50 μM; read-out: % TRPA1 Blockade at 50 μM
T3 construct: expressed in transfected cells
From the text: as §1

rat TRPM8 [3] = target: T1, rat TRPM8; assay: Ca2+ intracellular influx assay (calcium microfluorimetry), menthol-induced; type: cell-based; conditions: 100 μM menthol; for IC50 / % Blockade 5 μM / % Blockade 50 μM: HEK-rTRPM8; for % Blockade 5 μM: compound 5 μM; for % Blockade 50 μM: compound 50 μM; for Menthol-induced fluorescent signal: compound 10 μM, representative graph Figure A1
Protocol: The four obtained diastereomeric compounds were evaluated for their ability to inhibit menthol-induced Ca^2+ intracellular influx into the cytosol on HEK293 cells heterologously expressing rat TRPM8. The well-known TRPM8 antagonist N-(3-aminopropyl)-2-[(3-methylphenyl)methoxy]-N-(2-thienylmethyl)-benzamide (AMTB) was used as control. Some representative graphs for compound 14 and 16 at 10 μM on HEK-rTRPM8 cells are included in Figure A1.
Compounds were evaluated for their activity against rTRPM8 using microfluorometry based calcium flux assays with Fluo-4 NW Ca^2+ dye and fluorescence were measured at excitation wavelength of 485 nm and emission wavelength of 520 nm using POLASTAR plate reader (BMG Labtech). Briefly human embryonic kidney cell line (HEK) stably transfected with rTRPM8 were seeded in 96-well plates at a cell density of 30,000 cells and 2 days before the medium was replaced with 100 μL of the dye loading solution Fluo-4 NW supplemented with probenecid 2.5 mM. After 1 h incubation at 37 °C, plates were transferred to the plate reader and the baseline fluorescence was recorded for 3 cycles before the addition of vehicle, compound at different concentrations and the antagonist, 10 μM AMTB for TRPM8. Fluorescence intensity was recorded during 7 more cycles and the agonist was added, 100 μM menthol. Fluorescence intensity was recorded during 10 more cycles.
Data analysis: the fluorescence values obtained for each compound concentration were normalized to that prompted by the control agonist (100 μM menthol). Decrease in menthol signal was expressed as percentage of inhibition (%). All data are expressed as the mean ± standard deviation (SD). Each condition was assessed in triplicate (n = 3) in 3 independent experiments (N = 3). The Z-factor was calculated in each assay using the following equation: […]. In all the experiments, the Z-factor was ≥ 0.5. To calculate IC50, normalized responses (%) versus log (μM) were adjusted to a non-linear fit with variable slope, a four-parameter dose–response curve following curve Y = 100/(1 + 10^((Log IC50-X) × HillSlope)) where […].

rat DRG neurons = assay: Microelectrode array, KCl-evoked action potentials in DRG neurons; type: cell-based; conditions: compound 10 μM; 40 mM KCl
From the text: To further interrogate β–lactam derivatives’ action on the excitability of DRG neurons we next used microelectrode arrays (MEA). This technology records the electrogenic activity of neural populations that are located near to an electrode, but it cannot differentiate the number of neurons or other cells contributing to it. We used MEA chips with 60 electrodes and monitored the electrical activity at each electrode to measure if the potent inhibitory effect of β–lactam derivatives act on voltage-gated Na^+ and K^+ channels present in neurons and responsible for action potential propagation. Neurons isolated from neonatal rat dorsal root ganglions (DRG) were cultured on MEA chambers. The experimental paradigm consisted in applying a first 15-s pulse (P1) of 40 mM KCl, to evoke action potentials. […]
Data analysis: Data were analyzed using an MC_RACK spike sorter with a sample rate of 25 kHz and a Butterworth high-pass 2nd order filter applied with 200 Hz cutoff. […] Spiking activity was measured in a temporal interval of 30 s, starting right after instillation of the activating stimuli. […] The recorded signals were then processed to extract mean spike frequency for each pulse (P1–P2). Then, the ratio P2/P1 of mean spike frequency was calculated and normalized to vehicle for comparing the different conditions used.

rat DRG sensory neurons = assay: Current-clamp resting membrane potential of DRG sensory neurons; type: cell-based; conditions: compound 10 μM, t-test ns
Protocol: Next, we investigated the effect of the membrane of rat DRG sensory neurons. […] Sensory neurons were functional as evidenced by action potentials fired exposed to 100 μM menthol (Figure 3A, top trace).
Current-Clamp recordings from rat DRGs were carried out 24–48 h after seeding on 12-mm Ø glass coverslips treated with poly-L-lysine solution and Laminin (Sigma Aldrich). The intracellular pipette solution contained (in mM): 4 NaCl, 126 K gluconate, 0.02 CaCl2, 1 MgSO4, 5 HEPES, 15 glucose, 3 ATP, 0.1 GTP and 5 EGTA, pH 7.2 with KOH. The extracellular solution contained (in mM): 140 NaCl, 4 KCl, 2 CaCl2, 2 MgCl2, 10 HEPES, 5 glucose and 20 mannitol, pH 7.4 with NaOH. The membrane potential was measured in the absence and the presence of compounds 14 and 16 at 10 μM in a time interval of 1 min.
(§2) Data were sampled at 10 kHz (EPC10 amplifier with PatchMaster 2.53 software, HEKA Electronics, Lambrecht, Germany) and low-pass filtered at 3 kHz for analysis (PatchMaster 2.53 and GraphPad Prism 5, Graphpad Software, USA). The series resistance was <10 MΩ and to minimize voltage errors was compensated to 60–80%. All measurements were performed at 24–25 °C. Cell capacitance was measured and used to estimate the current density (J, pA/pF).

rat TRPM8 [4] = target: T1, rat TRPM8; assay: Whole-cell patch-clamp in HEK293 cells expressing rat TRPM8; type: cell-based; conditions: 100 μM menthol; for % Blockade at 10 μM: compound 10 μM, whole cell; for IC50: holding potential −60 mV
Protocol: In the electrophysiology assay, both compounds at 10 μM concentration were able to block TRPM8-mediated responses induced by menthol (Figure 2 and Figure A2, Table 3). […] After 10 μM of 14 was applied (Figure 2A, red), an important decrease on the menthol-induced TRPM8 activity at depolarizing voltages was observed. A similar behavior was detected after application of diastereomeric β–lactam 16 (Figure 2B). The dose–response curves for both compounds were obtained at a holding potential of −60 mV (Figure 2). The measured IC50 values were 0.9 ± 1.0 μM for 14 (Figure 2C) and 0.05 ± 1.3 μM for 16 (Figure 2D).
Whole-cell patch-clamp recordings from HEK-rTRPM8 cells were carried out 2 days after seeding on 12-mm Ø glass coverslips treated with poly-L-lysine solution (Sigma Aldrich, Spain); the intracellular pipette solution contained (in mM) 150 NaCl, 5 EGTA, 3 MgCl2 and 10 HEPES, adjusted to pH 7.2 with NaOH, and the extracellular solution contained (in mM) 150 NaCl, 6 CsCl, 1.5 CaCl2, 1 MgCl2, 10 D-glucose and 10 HEPES, adjusted to pH 7.4 with NaOH. The TRPM8 activity was measured by the application of two pulses of 100 μM menthol in a time interval of 2 min and a 30-s perfusion of the different compound concentrations before the second menthol pulse.
as §2
Data analysis: Results are expressed as the percentage of remaining activation of the TRPM8 channel. This is calculated by normalizing the ratio (p2/p1) of testing conditions to the ratio (p2/p1) of the control condition. Analysis of the data was performed by GraphPad 6.0, the Ordinary One-Way ANOVA analysis followed by the post hoc Bonferroni test stablished multiple comparisons and the ROUT method (Q = 10%) identified data outliers. A non-linear regression curve and IC50 were obtained by the representation of log (inhibitor) vs. response. All data are expressed as the mean ± standard error of the mean (SEM) (n = 5–8).

TRPM8 = test system: TRPM8; parameters: method as in PMID 25893043, PMID 30148953; conditions: healthy volunteers and migraneous patients, respectively; ref [35],[36]; cited from earlier work

T1 sequence (Q8R455 whole entry): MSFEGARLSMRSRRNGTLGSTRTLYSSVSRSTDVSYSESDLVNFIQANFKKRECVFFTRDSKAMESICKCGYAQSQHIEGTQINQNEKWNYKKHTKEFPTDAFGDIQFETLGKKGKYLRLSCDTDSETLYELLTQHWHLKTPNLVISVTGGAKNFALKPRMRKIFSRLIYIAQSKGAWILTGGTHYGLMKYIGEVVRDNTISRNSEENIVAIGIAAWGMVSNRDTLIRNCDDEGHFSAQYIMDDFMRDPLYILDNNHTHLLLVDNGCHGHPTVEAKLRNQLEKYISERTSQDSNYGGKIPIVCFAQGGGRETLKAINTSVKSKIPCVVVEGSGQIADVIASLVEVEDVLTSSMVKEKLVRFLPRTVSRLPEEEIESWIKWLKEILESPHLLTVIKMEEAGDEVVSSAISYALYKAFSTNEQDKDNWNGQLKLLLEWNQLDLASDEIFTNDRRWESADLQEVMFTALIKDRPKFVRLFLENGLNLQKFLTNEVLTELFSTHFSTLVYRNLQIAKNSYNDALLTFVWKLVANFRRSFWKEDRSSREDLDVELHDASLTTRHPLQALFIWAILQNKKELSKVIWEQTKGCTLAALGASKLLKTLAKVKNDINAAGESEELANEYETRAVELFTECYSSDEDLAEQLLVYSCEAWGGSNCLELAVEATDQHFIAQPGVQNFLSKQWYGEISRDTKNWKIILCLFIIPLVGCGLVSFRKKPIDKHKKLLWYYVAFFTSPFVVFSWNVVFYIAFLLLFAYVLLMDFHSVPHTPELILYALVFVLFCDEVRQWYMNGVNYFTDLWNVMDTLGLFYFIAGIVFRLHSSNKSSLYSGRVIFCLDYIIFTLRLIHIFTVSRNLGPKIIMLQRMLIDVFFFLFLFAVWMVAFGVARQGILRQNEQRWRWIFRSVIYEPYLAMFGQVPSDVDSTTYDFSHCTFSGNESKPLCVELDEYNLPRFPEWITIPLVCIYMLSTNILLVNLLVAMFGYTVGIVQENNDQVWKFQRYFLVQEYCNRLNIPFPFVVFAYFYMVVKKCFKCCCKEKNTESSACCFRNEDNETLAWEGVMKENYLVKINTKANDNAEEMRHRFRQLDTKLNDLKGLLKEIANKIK
T3 sequence (O75762 whole entry): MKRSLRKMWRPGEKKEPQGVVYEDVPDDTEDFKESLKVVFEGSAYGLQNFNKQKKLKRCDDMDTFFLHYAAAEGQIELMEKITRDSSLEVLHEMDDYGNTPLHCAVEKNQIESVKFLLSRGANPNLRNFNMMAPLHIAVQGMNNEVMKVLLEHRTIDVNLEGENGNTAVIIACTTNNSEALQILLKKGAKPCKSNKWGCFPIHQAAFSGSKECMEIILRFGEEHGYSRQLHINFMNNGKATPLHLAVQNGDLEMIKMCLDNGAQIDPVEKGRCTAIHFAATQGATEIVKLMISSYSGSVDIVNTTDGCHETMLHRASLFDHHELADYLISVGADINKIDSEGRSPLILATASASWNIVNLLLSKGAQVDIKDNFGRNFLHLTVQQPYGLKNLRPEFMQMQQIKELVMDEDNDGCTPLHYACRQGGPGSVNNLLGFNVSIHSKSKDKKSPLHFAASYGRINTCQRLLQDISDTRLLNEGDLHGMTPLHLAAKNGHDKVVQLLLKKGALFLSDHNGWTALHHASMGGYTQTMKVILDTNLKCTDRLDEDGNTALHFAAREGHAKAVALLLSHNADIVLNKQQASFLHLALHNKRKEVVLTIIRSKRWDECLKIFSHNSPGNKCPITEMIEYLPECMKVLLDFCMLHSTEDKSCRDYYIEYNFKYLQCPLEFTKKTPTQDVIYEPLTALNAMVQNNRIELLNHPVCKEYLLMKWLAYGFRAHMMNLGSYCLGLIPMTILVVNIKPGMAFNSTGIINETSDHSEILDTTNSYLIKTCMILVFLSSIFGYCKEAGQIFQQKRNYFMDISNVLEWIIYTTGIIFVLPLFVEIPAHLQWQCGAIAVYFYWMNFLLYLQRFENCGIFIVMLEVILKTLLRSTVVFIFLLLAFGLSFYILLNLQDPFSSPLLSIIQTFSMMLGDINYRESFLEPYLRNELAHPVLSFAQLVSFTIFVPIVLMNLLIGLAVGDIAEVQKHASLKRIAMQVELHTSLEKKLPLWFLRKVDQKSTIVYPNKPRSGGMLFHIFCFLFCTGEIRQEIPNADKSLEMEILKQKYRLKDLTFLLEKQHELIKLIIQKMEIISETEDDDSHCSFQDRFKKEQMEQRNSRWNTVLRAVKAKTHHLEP
T2 sequence (Q8NER1 whole entry): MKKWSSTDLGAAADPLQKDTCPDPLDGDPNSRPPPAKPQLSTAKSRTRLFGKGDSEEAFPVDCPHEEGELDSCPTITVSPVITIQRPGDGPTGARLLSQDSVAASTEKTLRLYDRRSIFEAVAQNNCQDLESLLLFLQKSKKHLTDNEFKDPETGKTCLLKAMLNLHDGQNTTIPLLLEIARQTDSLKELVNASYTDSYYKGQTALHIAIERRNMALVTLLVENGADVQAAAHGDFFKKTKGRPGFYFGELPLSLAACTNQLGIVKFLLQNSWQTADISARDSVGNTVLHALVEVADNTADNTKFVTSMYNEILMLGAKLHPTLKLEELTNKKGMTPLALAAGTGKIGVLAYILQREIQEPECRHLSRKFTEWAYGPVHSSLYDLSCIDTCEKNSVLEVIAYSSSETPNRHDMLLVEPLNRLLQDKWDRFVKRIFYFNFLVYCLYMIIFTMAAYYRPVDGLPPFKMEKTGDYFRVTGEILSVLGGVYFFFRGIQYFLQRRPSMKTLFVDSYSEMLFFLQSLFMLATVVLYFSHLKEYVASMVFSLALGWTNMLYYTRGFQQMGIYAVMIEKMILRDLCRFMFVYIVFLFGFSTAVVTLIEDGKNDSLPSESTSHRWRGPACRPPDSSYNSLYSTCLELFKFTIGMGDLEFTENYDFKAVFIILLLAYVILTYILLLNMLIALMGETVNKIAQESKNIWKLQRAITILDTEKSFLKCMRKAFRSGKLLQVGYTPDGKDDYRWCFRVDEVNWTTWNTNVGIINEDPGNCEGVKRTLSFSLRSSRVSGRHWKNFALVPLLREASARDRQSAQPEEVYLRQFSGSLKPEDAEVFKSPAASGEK

Compound	inhibition at 50 µM (hTRPV1)	inhibition at 50 µM (hTRPA1)	IC50 (rat TRPM8 [3])	% Blockade 5 μM (rat TRPM8 [3])	% Blockade 50 μM (rat TRPM8 [3])	Menthol-induced fluorescent signal (rat TRPM8 [3])	% Blockade at 10 μM (rat TRPM8 [4])	IC50 (rat TRPM8 [4])	Oxaliplatin-induced allodynia [1]	Antitumor activity (four tumor cell lines)	Block of channel activation by menthol (Ca2+ entry assay) (rat TRPM8 [2])	Effect on potassium-evoked action potentials (electrogenicity) (rat DRG neurons)	Effect on resting membrane potential (rat DRG sensory neurons)	Adverse effects in phase I clinical trials (TRPM8)
C[C@@H]1C(=O)N(C[C@H](Cc2ccccc2)NC(=O)OCc2ccccc2)[C@]1(Cc1ccccc1)C(=O)OCc1ccccc1 [Compound 1]	–	–	–	–	–	–	–	–	significantly reduces the oxaliplatin-induced allodynia	micromolar potency in four tumor cell lines	micromolar values	–	–	–
C[C@@H]1C(=O)N(C[C@H](Cc2ccccc2)N(Cc2ccccc2)Cc2ccccc2)[C@]1(Cc1ccccc1)C(=O)OCc1ccccc1 [Compound 13, 4S-Benzyl-1-[(2′S-dibenzylamino-3′-phenyl-)prop-1′-yl]-4-benzyloxicarbonyl-3S-methyl-2-oxoazetidine]	7.9 ± 3.2%	3.7 ± 4.1%	3100 ± 1100 nM	57.7 ± 7.2%	86.1 ± 5.0%	–	–	–	–	–	–	–	–	–
C[C@H](c1ccc(F)cc1)N(Cc1cccc(C(=O)O)c1)C(=O)c1cnc2ccccc2c1 [PF-05105679]	–	–	–	–	–	–	–	–	–	–	–	–	–	several adverse effects, including feeling hot

Now from value to compound, other results behind:

inhibition at 50 µM (hTRPV1)	inhibition at 50 µM (hTRPA1)	IC50 (rat TRPM8 [3])	% Blockade 5 μM (rat TRPM8 [3])	% Blockade 50 μM (rat TRPM8 [3])	Menthol-induced fluorescent signal (rat TRPM8 [3])	% Blockade at 10 μM (rat TRPM8 [4])	IC50 (rat TRPM8 [4])	Compound	Oxaliplatin-induced allodynia [1]	Antitumor activity (four tumor cell lines)	Block of channel activation by menthol (Ca2+ entry assay) (rat TRPM8 [2])	Effect on potassium-evoked action potentials (electrogenicity) (rat DRG neurons)	Effect on resting membrane potential (rat DRG sensory neurons)	Adverse effects in phase I clinical trials (TRPM8)
2.8 ± 4.1%	2.4 ± 1.4%	–	78.9 ± 1.7%	87.7 ± 3.1%	completely blocked	77.2 ± 2.7%	900 ± 1000 nM	C[C@@H]1C(=O)N(C[C@@H](Cc2ccccc2)N(Cc2ccccc2)Cc2ccccc2)[C@]1(Cc1ccccc1)C(=O)OCc1ccccc1 [Compound 14, 4S-Benzyl-1-[(2′R-dibenzylamino-3′-phenyl)prop-1′-yl]-4-benzyloxicarbonyl-3S-methyl-2-oxoazetidine]	–	–	–	do not alter potassium-evoked action potentials; also recorded: did not affected the electrogenicity	do not affect the membrane resting potential	–
5.3 ± 3.4%	2.6 ± 1.9%	700 ± 1100 nM	71.1 ± 4.3%	90.3 ± 2.8%	–	–	–	C[C@H]1C(=O)N(C[C@H](Cc2ccccc2)N(Cc2ccccc2)Cc2ccccc2)[C@@]1(Cc1ccccc1)C(=O)OCc1ccccc1 [Compound 15, 4R-Benzyl-1-[(2′S-dibenzylamino-3′-phenyl)prop-1′-yl]-4-benzyloxicarbonyl-3R-methyl-2-oxoazetidine]	–	–	–	–	–	–
4.2 ± 3.2%	0.5 ± 4.1%	–	87.3 ± 8.1%	98.5 ± 3.2%	completely blocked	79.3 ± 2.7%	50 nM	C[C@H]1C(=O)N(C[C@@H](Cc2ccccc2)N(Cc2ccccc2)Cc2ccccc2)[C@@]1(Cc1ccccc1)C(=O)OCc1ccccc1 [Compound 16, 4R-Benzyl-1-[(2′R-dibenzylamino-3′-phenyl-)prop-1′-yl]-4-benzyloxicarbonyl-3R-methyl-2-oxoazetidine]	–	–	–	do not alter potassium-evoked action potentials; also recorded: did not affected the electrogenicity	do not affect the membrane resting potential	–
